target: T1, 5-HT transporter (Rattus norvegicus, UniProt P31652); test: 5-HT uptake inhibition, synaptosomes from rat brain (medulla and pons); type: biochemical
T1 construct: from tissue; host or cells: rat brain (medulla and pons), synaptosomes, P2 fraction
Source text: b) Method for Determining Noradrenalin and 5-HT Uptake Inhibition:
Synaptosomes from rat brain regions are freshly isolated for in vitro studies, as described in the publication “The isolation of nerve endings from brain” by E. G. Gray and V. P. Whittaker, J. Anatomy 96, pages 79-88, 1962. The corresponding literature description is hereby introduced as a reference and is deemed to be part of the disclosure.
The tissue (hypothalamus for the determination of noradrenalin uptake inhibition and medulla and pons for the determination of 5-HT uptake inhibition) is homogenised in ice-cooled 0.32 M sucrose (100 mg of tissue/1 mL) in a glass homogeniser with Teflon pestle using five complete up and down strokes at 840 revolutions/minute.
The homogenate is centrifuged at 4° C. for 10 minutes at 1000 g. After subsequent centrifugation at 17000 g for 55 minutes, the synaptosomes (P2 fraction) are obtained, which are resuspended in 0.32 M […] (0.5 mL/100 mg of original weight).
The particular uptake is measured in a 96-well microtitre plate. The volume is 250 μL and the incubation proceeds at room temperature (approx. 20-25° C.) under an O2 atmosphere.
The incubation time is 7.5 minutes for [^3H]-NA and 5 minutes for [^3H]-5-HT. The 96 samples are then filtered through a Unifilter GF/B® microtitre plate (Packard) and washed with 200 mL of incubated buffer using a “Brabdel MPXRI-96T Cell-Harvester”. The Unifilter GF/B plate is dried for 1 hour at 55° C. The plate is then sealed with a Back Seal® (Packard) and 35 μL of scintillation fluid are added per well (Ultima Gold®, Packard). After sealing with a top Seal® (Packard) and establishing an equilibrium (around 5 hours), radioactivity is determined in a “Trilux 1450 Microbeta” (Wallac).
The quantity of protein used in the above determination corresponds to the values known from the literature, as for example described in “Protein measurement with the folin phenol reagent”, Lowry et al., J. Biol. Chem., 193, 265-275, 1951.
A detailed description of the method may additionally be found in the literature, for example in M. Ch. Frink, H.-H. Hennies, W. Engelberger, M. Haurand and B. Wilffert (1996) Arzneim.-Forsch./Drug Res. 46 (III), 11, 1029-1036.
The following characteristics were determined for the NA or 5-HT transporter: […]

T1 sequence (P31652 whole entry): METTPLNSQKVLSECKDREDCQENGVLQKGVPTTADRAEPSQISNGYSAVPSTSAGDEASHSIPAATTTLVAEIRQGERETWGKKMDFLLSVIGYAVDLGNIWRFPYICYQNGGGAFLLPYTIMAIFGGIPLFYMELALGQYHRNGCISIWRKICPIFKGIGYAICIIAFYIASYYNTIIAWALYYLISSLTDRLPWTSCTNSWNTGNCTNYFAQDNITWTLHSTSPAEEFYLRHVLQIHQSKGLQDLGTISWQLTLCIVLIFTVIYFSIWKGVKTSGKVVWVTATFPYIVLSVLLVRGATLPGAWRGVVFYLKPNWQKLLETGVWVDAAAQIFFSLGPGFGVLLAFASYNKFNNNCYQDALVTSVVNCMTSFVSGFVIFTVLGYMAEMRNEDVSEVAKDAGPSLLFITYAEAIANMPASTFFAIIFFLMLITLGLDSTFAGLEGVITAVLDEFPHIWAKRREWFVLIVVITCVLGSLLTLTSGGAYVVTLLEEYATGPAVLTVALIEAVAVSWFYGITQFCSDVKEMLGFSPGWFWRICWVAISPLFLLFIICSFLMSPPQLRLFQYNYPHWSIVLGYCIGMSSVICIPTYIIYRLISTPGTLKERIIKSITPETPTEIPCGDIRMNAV

Compared with `COCCNC(=O)c1noc2c1CN(C(=O)Nc1cccc(OC)c1)CC2` [Example 1, 6,7-dihydro-4H-isoxazolo[4,5-c]pyridine-3,5-dicarboxylic acid 3-[(2-methoxy-ethyl) amide] 5-[(3-methoxyphenyl) amide]], `CCSCCNC(=O)c1noc2c1CN(C(=O)Nc1cccc(OC)c1)CC2` [Example 11, 6,7-dihydro-4H-isoxazolo[4,5-c]pyridine-3,5-dicarboxylic acid 3-[(2-ethylsulfanyl-ethyl) amide]5-[(3-methoxyphenyl) amide]] is higher in “5-HT uptake (rat), 10 μM, % inhibition” value: 47% for the first, 54% for the second.

Going from `O=C(NC1CCCC1)c1noc2c1CN(C(=O)NCc1ccc(F)cc1)CC2` [Example 2, 6,7-dihydro-4H-isoxazolo[4,5-c]pyridine-3,5-dicarboxylic acid 3-cyclopentyl amide 5-(4-fluorobenzyl amide)] to `CCOc1ccc(NC(=O)N2CCc3onc(C(=O)NCc4ccc(F)cc4)c3C2)cc1` [Example 21, 6,7-dihydro-4H-isoxazolo[4,5-c]pyridine-3,5-dicarboxylic acid 5-[(4-ethoxy-phenyl) amide] 3-(4-fluorobenzyl amide)], the “5-HT uptake (rat), 10 μM, % inhibition” value rises from 41% to 56%.

First: O=C(Nc1ccccc1)c1noc2c1CN(C(=O)Nc1ccc(OC(F)(F)F)cc1)CC2 [Example 3, 6,7-dihydro-4H-isoxazolo[4,5-c]pyridine-3,5-dicarboxylic acid 3-phenyl amide 5-[(4-trifluoromethoxy-phenyl) amide]]
Second: O=C(NCc1ccccc1)c1noc2c1CN(C(=O)Nc1ccccc1)CC2 [Example 17, 6,7-dihydro-4H-isoxazolo[4,5-c]pyridine-3,5-dicarboxylic acid 3-benzyl amide 5-phenyl amide]
The “5-HT uptake (rat), 10 μM, % inhibition” value of the first is lower: 45% for the first, 64% for the second.

Going from `COCCNC(=O)c1noc2c1CN(C(=O)Nc1ccc(C)c([N+](=O)[O-])c1)CC2` [Example 5, 6,7-dihydro-4H-isoxazolo[4,5-c]pyridine-3,5-dicarboxylic acid 3-[(2-methoxy-ethyl) amide]5-[(4-methyl-3-nitro-phenyl) amide]] to `C#CCNC(=O)c1noc2c1CN(C(=O)Nc1ccc(C)c([N+](=O)[O-])c1)CC2` [Example 16, 6,7-dihydro-4H-isoxazolo[4,5-c]pyridine-3,5-dicarboxylic acid 5-[(4-methyl-3-nitro-phenyl) amide]3-prop-2-ynyl amide], the “5-HT uptake (rat), 10 μM, % inhibition” value rises from 47% to 55%.

Compared with `CCOC(=O)CCNC(=O)c1noc2c1CN(C(=O)Nc1cc(F)ccc1F)CC2` [Example 6], `C#CCNC(=O)c1noc2c1CN(C(=O)Nc1cccc(F)c1)CC2` [Example 19, 6,7-dihydro-4H-isoxazolo[4,5-c]pyridine-3,5-dicarboxylic acid 5-[(3-fluorophenyl) amide] 3-prop-2-ynyl amide] is higher in “5-HT uptake (rat), 10 μM, % inhibition” value: 43% for the first, 50% for the second.

First: CCCCOc1ccc(NC(=O)N2CCc3onc(C(=O)NCCOC)c3C2)cc1 [Example 7, 6,7-dihydro-4H-isoxazolo[4,5-c]pyridine-3,5-dicarboxylic acid 5-[(4-butoxy-phenyl) amide] 3-[(2-methoxy-ethyl) amide]]
Second: CCOC(=O)c1cccc(NC(=O)N2CCc3onc(C(=O)NCc4ccc(C)o4)c3C2)c1 [Example 23, 3-({3-[(5-methyl-furan-2-ylmethyl)-carbamoyl]-6,7-dihydro-4H-isoxazolo[4 5-c]pyridine-5-carbonyl}-amino)-benzoic acid ethyl ester]
The “5-HT uptake (rat), 10 μM, % inhibition” value of the first is lower: 44% for the first, 52% for the second.

Going from `Cc1ccc(NC(=O)N2CCc3onc(C(=O)NCc4cccs4)c3C2)cc1[N+](=O)[O-]` [Example 9, 6,7-dihydro-4H-isoxazolo[4,5-c]pyridine-3,5-dicarboxylic acid 5-[(4-methyl-3-nitro-phenyl) amide] 3-[(thiophen-2-ylmethyl) amide]] to `Cc1ccc(NC(=O)N2CCc3onc(C(=O)NCc4ccc(F)cc4)c3C2)cc1[N+](=O)[O-]` [Example 14, 6,7-dihydro-4H-isoxazolo[4,5-c]pyridine-3,5-dicarboxylic acid 3-(4-fluorobenzyl amide) 5-[(4-methyl-3-nitro-phenyl) amide]], the “5-HT uptake (rat), 10 μM, % inhibition” value rises from 45% to 53%.

First: CC(=O)c1cccc(NC(=O)N2CCc3onc(C(=O)NCc4ccc(C)o4)c3C2)c1 [Example 15, 6,7-dihydro-4H-isoxazolo[4,5-c]pyridine-3,5-dicarboxylic acid 5-[(3-acetyl-phenyl) amide] 3-[(5-methyl-furan-2-ylmethyl) amide]]
Second: COc1ccc(Cl)cc1NC(=O)N1CCc2onc(C(=O)NCCc3ccccc3)c2C1 [Example 22, 6,7-dihydro-4H-isoxazolo[4,5-c]pyridine-3,5-dicarboxylic acid 5-[(5-chloro-2-methoxyphenyl) amide] 3-(phenethyl amide)]
The “5-HT uptake (rat), 10 μM, % inhibition” value of the first is lower: 58% for the first, 60% for the second.

In the case of `O=C(c1noc2c1CN(S(=O)(=O)c1ccc(F)cc1)CC2)N1CCN(c2ncnc3sccc23)CC1` [Example 34], the “5-HT uptake (rat), 10 μM, % inhibition” value is reported as 74%.

Going from `CCOC(=O)CCNC(=O)c1noc2c1CN(C(=O)Nc1cc(OC)ccc1OC)CC2` [Example 20, 3-{[5-(2,5-dimethoxy-phenylcarbamoyl)-4,5,6,7-tetrahydro-isoxazolo[4,5-c]pyridine-3-carbonyl]-amino}-propionic acid ethyl ester] to `Cc1ccc(CNC(=O)c2noc3c2CN(C(=O)C(C)(C)CC(=O)O)CC3)o1` [Example 31, 3,3-dimethyl-4-{3-[(5-methyl-furan-2-ylmethyl)-carbamoyl]-6,7-dihydro-4H-isoxazolo[4,5-c]pyridin-5-yl}-4-oxo-butanoic acid], the inhibition at 10 µM rises from 51% to 57%.

Compared with `CCC(C)(CC(=O)O)CC(=O)N1CCc2onc(C(=O)NCCOC)c2C1` (stereo not drawn) [Example 26, 3-ethyl-5-[3-(2-methoxy-ethylcarbamoyl)-6,7-dihydro-4H-isoxazolo[4,5-c]pyridin-5-yl]-3-methyl-5-oxo-pentanoic acid], `O=C(O)COCC(=O)N1CCc2onc(C(=O)NCc3cccs3)c2C1` [Example 30, (2-oxo-2-{3-[(thiophen-2-ylmethyl)-carbamoyl]-6,7-dihydro-4H-isoxazolo[4,5-c]pyridin-5-yl}-ethoxy)acetic acid] is higher in inhibition at 10 µM: 54% for the first, 57% for the second.

Going from `CC(C)(C)OC(=O)NC(COCc1ccccc1)C(=O)N1CCc2onc(C(=O)NCc3cccnc3)c2C1` (stereo not drawn) [Example 27, (1-benzyloxymethyl-2-oxo-2-{3-[(pyridin-3-ylmethyl)-carbamoyl]-6,7-dihydro-4H-isoxazolo[4,5-c]pyridin-5-yl}-ethyl)-carbamic acid tert-butyl ester] to `CN(C)CCNC(=O)c1noc2c1CN(C(=O)COc1ccccc1)CC2` [Example 37, 5-(2-phenoxy-acetyl)-4,5,6,7-tetrahydro-isoxazolo[4,5-c]pyridine-3-carboxylic acid (2-dimethylamino-ethyl) amide], the inhibition at 10 µM rises from 41% to 61%.

With `CN(C)CCNC(=O)c1noc2c1CN(C(=O)C=Cc1ccccc1)CC2` [Example 36, 5-(3-phenyl-acryloyl)-4,5,6,7-tetrahydro-isoxazolo[4,5-c]pyridine-3-carboxylic acid (2-dimethylamino-ethyl) amide] the inhibition at 10 µM was 72%.

Reference: patent US8048879B2, “Substituted 4,5,6,7-tetrahydro-isoxazolo[4,5-c]pyridine compounds and use thereof for producing medicaments” (Gruenenthal GmbH, priority 2005, dated 2011)
